Measured values reported in article PMC11477289, “Low-Basicity 5-HT6 Receptor Ligands from the Group of Cyclic Arylguanidine Derivatives and Their Antiproliferative Activity Evaluation” (International Journal of Molecular Sciences, 2024).
Where two headings read alike, the source gives them in different places.

Key:
[1] = Chromatographic hydrophobicity index on C18 column (lipophilicity); type: physicochemical
[2] = Affinity to phospholipids, IAM column (CHI IAM); type: physicochemical; conditions: IAM.PC.DD2 column, pH 7.4
[3] = biological target: human serum albumin (HSA) (Homo sapiens, UniProt P02768); test: Binding to HSA, Chiralpak HSA column
Description: We began with an assay for lipophilicity, affinity for phospholipids (for 40 compounds), and drug binding to human serum albumin (HSA) (for 20 compounds), using chromatographic protocols developed by Valko [46] and implemented in our laboratory. Compounds with the highest affinity for 5-HT6R and those showing the most promising ADMET parameters, including the possibility of BBB penetration, DDI, and lipophilicity, determined in silico in SwissADME [45], were selected for testing. These methods allowed the determination of chromatographic hydrophobicity indices (CHIs), binding to HSA (%HSA), and phospholipids (CHIIAM) using a single-gradient elution experiment and comparison to reference substances.
The use of columns modified with plasma proteins, such as HSA, also allows for the estimation of binding to HSA, which is the most dominant plasma protein (PP). Binding to PP affects drug pharmacokinetics, such as distribution, half-life, and clearance.
The mobile phase flow rate was 1.5 mL/min, and the column was maintained at 30 °C. • Chiralpak® HSA (50 mm × 4 mm; 5 µm with safety guard column; Daicel Chiral Technologies, West Chester, PA, USA), mobile phase A: 50 mM ammonium acetate, mobile phase B: HPLC-grade isopropanol (VWR International, Leuven, Belgium). For the first 15 min, the linear gradient from 0 to 20% isopropanol was applied and then held at 20% isopropanol for 12 min. In the last 5 min of the sequence, the mobile phase mixture received a pure ammonium acetate solution. The column temperature was held at 30 °C, whereas the flow rate was 0.9 mL/min.
The reference substances for the calibration of HSA, C18, and IAM columns were purchased, respectively: acetanilide, butyrophenone, diclofenac, and octanonophenone (Alfa Aesar, Haverhill, MA, USA); acetophenone, benzimidazole, colchicine, indole, indometacin, paracetamol, and theophylline (Sigma-Aldrich, Steinheim, Germany); nicardipine and nizatidine (Cayman Chemical, Ann Arbor, MI, USA); carbamazepine, heptanophenone, hexanophenone, propiophenone, and valerophenone (Acros Organic, Pittsburg, PA, USA). Before chromatographic experiments, solutes were dissolved in dimethyl sulfoxide (Avantor Performance Materials Poland S.A., Gliwice, Poland) to obtain a 200 µg/mL concentration. The detection was performed in the UV region at the wavelength from 190 nm to 300 nm. The injected volume was 5 μL, and each compound was analyzed in triplicate.

[4] = system: 1321N1 astrocytoma cell line; test: Antiproliferative activity (MTS), 1321N1; conditions: Homo sapiens, 1321-N1, 72 h, read-out: IC50 Values 1321N1
human 5-HT6 = biological target: T1, human 5-HT6 (Homo sapiens, UniProt P50406); test: [3H]-LSD radioligand binding assay, 5-HT6R; conditions: HEK293 expressing human 5-HT6R, read-out: 5-HT6 Ki
T1 construct: expressed in transfected cells
Method: Next, the ligands’ affinity for the 5-HT6 receptors was evaluated in the [^3H]-LSD radioligand binding assay. Experiments were performed in a stable HEK293 cell line expressing the human 5-HT6R.
The pellets were stored at −80 °C.

U87MG glioblastoma cells = test: Antiproliferative activity (MTS), U87MG; conditions: Homo sapiens, U-87 MG, 72 h, read-out: IC50 Values U87MG

human serum albumin (HSA), sequence (P02768 25-609): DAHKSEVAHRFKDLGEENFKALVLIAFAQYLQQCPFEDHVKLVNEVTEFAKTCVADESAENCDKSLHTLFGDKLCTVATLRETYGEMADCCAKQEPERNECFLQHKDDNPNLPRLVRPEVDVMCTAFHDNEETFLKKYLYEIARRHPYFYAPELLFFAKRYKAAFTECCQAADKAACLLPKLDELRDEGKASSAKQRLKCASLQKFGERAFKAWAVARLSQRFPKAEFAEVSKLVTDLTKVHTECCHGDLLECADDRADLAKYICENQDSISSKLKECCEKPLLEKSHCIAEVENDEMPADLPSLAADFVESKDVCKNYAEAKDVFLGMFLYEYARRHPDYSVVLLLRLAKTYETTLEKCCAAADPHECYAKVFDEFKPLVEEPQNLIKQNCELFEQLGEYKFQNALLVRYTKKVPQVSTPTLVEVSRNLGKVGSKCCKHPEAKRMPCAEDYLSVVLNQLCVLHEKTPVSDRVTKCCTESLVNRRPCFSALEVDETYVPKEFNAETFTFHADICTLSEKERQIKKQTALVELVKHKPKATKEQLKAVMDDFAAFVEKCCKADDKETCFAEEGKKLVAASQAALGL
T1 sequence (P50406 whole entry): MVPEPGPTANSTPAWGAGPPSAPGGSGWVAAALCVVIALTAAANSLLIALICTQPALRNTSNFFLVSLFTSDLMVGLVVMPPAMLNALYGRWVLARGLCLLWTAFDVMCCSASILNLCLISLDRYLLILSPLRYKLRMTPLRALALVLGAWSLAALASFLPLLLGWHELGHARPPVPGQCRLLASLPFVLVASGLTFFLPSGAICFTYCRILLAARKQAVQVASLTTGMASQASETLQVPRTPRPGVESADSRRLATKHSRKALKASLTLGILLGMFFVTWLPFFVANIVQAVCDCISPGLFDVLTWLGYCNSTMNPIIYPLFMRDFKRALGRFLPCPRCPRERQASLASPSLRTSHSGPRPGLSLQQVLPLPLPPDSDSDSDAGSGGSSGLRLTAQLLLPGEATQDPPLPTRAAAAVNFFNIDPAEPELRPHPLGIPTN

| SMILES | CHI C18 pH 2.6 [1] | CHI C18 pH 7.4 [1] | CHI C18 pH 10.5 [1] | CHI IAM [2] | %HSA [3] [%] | logKHSA ([3]; Chiralpak HSA column) | IC50 [4] [nM] | %HSA ([3]; Chiralpak HSA column) [%] | Ki (human 5-HT6) [nM] | melting point [°C] | IC50 (U87MG glioblastoma cells) [nM] |
| --- | --- | --- | --- | --- | --- | --- | --- | --- | --- | --- | --- |
| CN(C)CCC=C1c2ccccc2CCc2ccccc21 [Amitriptyline, reference compound] | 65.9 | 112.0 | 116.3 | 47.0 | 88.9 | 0.87 |  |  |  |  |  |
| COc1cccc2c1C(=O)c1c(O)c3c(c(O)c1C2=O)C[C@@](O)(C(=O)CO)C[C@@H]3O[C@H]1C[C@H](N)[C@H](O)[C@H](C)O1 [Doxorubicin, reference compound] |  |  |  |  |  |  | 1100 |  |  |  |  |
| CN1CCN2c3ccccc3Cc3ccccc3C2C1 (stereo not shown) [Mianserin, reference compound] | 59.4 | 108.6 | 98.7 | 44.2 |  | 0.95 |  | 90.9 |  |  |  |
| CN1CCN2c3ncccc3Cc3ccccc3C2C1 (stereo not shown) [Mirtazapine, reference compound] | 46.7 | 101.2 | 79.0 | 39.3 |  | 0.51 |  | 76.9 |  |  |  |
| Nc1nc2ccccc2n1S(=O)(=O)c1cccc2cccnc12 [PR 9, 1-(quinoline-8-sulfonyl)-1H-1,3-benzodiazol-2-amine] | 75.1 | 79.2 | 79.6 | 35.7 |  | 1.1 | > 25000 | 94.3 | 318 ± 18 | 254 to 256 | > 25000 |
| O=S(=O)(NC1=Nc2ccccc2CN1)c1ccc(OC(F)(F)F)cc1 [PR 17, N -(3,4-dihydroquinazolin-2-yl)-4-(trifluoromethoxy)benzene-1-sulfonamide] | 94.2 | 93.2 | 95.0 | 38.7 |  | 1.1 | > 25000 | 93.7 | 9850 ± 2460 | 161 to 163 | > 25000 |
| O=S(=O)(NC1=Nc2ccccc2CN1)c1c(Cl)ccc2ccccc12 [PR 41, 2-chloro-N-(3,4-dihydroquinazolin-2-yl)naphthalene-1-sulfonamide] | 95.8 | 93.1 | 96.2 | 42.9 |  | 1.4 | > 25000 | 97.1 | 210 ± 48 | 241 to 244 | > 25000 |
| O=S(=O)(NC1=Nc2ccccc2CN1)c1ccc(Cl)c2ccccc12 [PR 42, 4-chloro-N-(3,4-dihydroquinazolin-2-yl)naphthalene-1-sulfonamide] | 100.1 | 99.2 | 101.6 | 45.5 |  | 1.5 | > 25000 | 97.9 | 268 ± 63 | 188 to 191 | > 25000 |
| O=S(=O)(NC1=Nc2ccccc2CN1)c1cccc2c(Cl)cccc12 [PR 43, 5-chloro-N-(3,4-dihydroquinazolin-2-yl)naphthalene-1-sulfonamide] |  |  |  |  |  |  | > 25000 |  | 258 ± 46 | 185 to 191 | > 25000 |
| O=S(=O)(NC1=Nc2ccccc2CN1)c1cccc2cc(Cl)ccc12 [PR 44, 6-chloro-N-(3,4-dihydroquinazolin-2-yl)naphthalene-1-sulfonamide] | 98.2 | 96.5 | 99.5 | 44.3 |  | 1.6 | > 25000 | 98.3 | 282 ± 65 | 210 to 212 | > 25000 |
| O=S(=O)(NC1=Nc2cccc(Cl)c2CN1)c1cccc2ccccc12 [PR 46, N -(5-chloro-3,4-dihydroquinazolin-2-yl)naphthalene-1-sulfonamide] |  |  |  |  |  |  | > 25000 |  | 160 ± 36 |  | > 25000 |
| O=S(=O)(NC1=Nc2cc(Cl)ccc2CN1)c1cccc2ccccc12 [PR 48, N -(7-chloro-3,4-dihydroquinazolin-2-yl)naphthalene-1-sulfonamide] | 97.6 | 97.1 | 95.9 | 44.6 |  |  |  |  | 668 ± 156 | 214 to 219 |  |
| O=S(=O)(NC1=Nc2ccc(Cl)c(Cl)c2CN1)c1cccc2ccccc12 [PR 50, N -(5,6-dichloro-3,4-dihydroquinazolin-2-yl)naphthalene-1-sulfonamide] | 106.2 | 103.9 | 108.6 | 49.0 |  |  |  |  | 451 ± 102 | 233 to 240 |  |
| COc1ccc(C(CN(C)C)C2(O)CCCCC2)cc1 (stereo not shown) [Venlafaxine, reference compound] | 53.5 | 82.2 | 92.9 | 29.9 |  | -0.55 |  |  |  |  |  |

Continued, values first:

| CHI C18 pH 2.6 [1] | CHI C18 pH 7.4 [1] | CHI C18 pH 10.5 [1] | CHI IAM [2] | %HSA [3] [%] | logKHSA ([3]; Chiralpak HSA column) | IC50 [4] [nM] | %HSA ([3]; Chiralpak HSA column) [%] | Ki (human 5-HT6) [nM] | melting point [°C] | IC50 (U87MG glioblastoma cells) [nM] | SMILES |
| --- | --- | --- | --- | --- | --- | --- | --- | --- | --- | --- | --- |
| 91.0 | 89.0 | 95.4 | 40.5 |  |  |  |  | 876 ± 201 | 222 to 226 |  | O=S(=O)(NC1=Nc2cc(F)ccc2CN1)c1cccc2ccccc12 [PR 56, N -(7-fluoro-3,4-dihydroquinazolin-2-yl)naphthalene-1-sulfonamide] |
| 84.9 | 85.0 | 88.4 | 38.2 |  |  |  |  | 1960 ± 452 | 263 to 266 |  | COc1ccc2c(c1)CNC(NS(=O)(=O)c1cccc3ccccc13)=N2 [PR 59, N -(6-methoxy-3,4-dihydroquinazolin-2-yl)naphthalene-1-sulfonamide] |
| 88.2 | 87.0 | 90.3 | 39.2 |  |  |  |  | 1410 ± 326 | 213 to 217 |  | COc1ccc2c(c1)N=C(NS(=O)(=O)c1cccc3ccccc13)NC2 [PR 60, N -(7-methoxy-3,4-dihydroquinazolin-2-yl)naphthalene-1-sulfonamide] |
| 93.2 | 93.0 | 93.7 | 41.6 |  |  |  |  | 653 ± 151 | 166 to 175 |  | Cc1ccc2c(c1)N=C(NS(=O)(=O)c1cccc3ccccc13)NC2 [PR 62, N -(7-methyl-3,4-dihydroquinazolin-2-yl)naphthalene-1-sulfonamide] |
|  |  |  |  |  |  | > 25000 |  | 236 ± 58 | 169 to 174 | > 25000 | CC1NC(NS(=O)(=O)c2cccc3ccccc23)=Nc2ccccc21 (stereo not shown) [PR 67, N -(4-methyl-3,4-dihydroquinazolin-2-yl)naphthalene-1-sulfonamide] |
| 100.2 | 99.7 | 101.0 | 45.8 |  |  |  |  | 985 ± 245 | 214 to 219 |  | CC1NC(NS(=O)(=O)c2cccc3ccccc23)=Nc2cc(Cl)ccc21 (stereo not shown) [PR 70, N -(7-chloro-4-methyl-3,4-dihydroquinazolin-2-yl)naphthalene-1-sulfonamide] |
| 114.1 | 111.3 | 116.7 | 49.3 |  |  |  |  | 997 ± 249 | 109 to 116 |  | CC1NC(NS(=O)(=O)c2cccc3ccccc23)=Nc2c(Cl)cc(Cl)cc21 (stereo not shown) [PR 72, N -(6,8-dichloro-4-methyl-3,4-dihydroquinazolin-2-yl)naphthalene-1-sulfonamide] |
